The record followed here is patent US6759547B1, “5,6,7,8-tetrahydronaphthalen-2-yl 2,6-difluoroheptatrienoic acid derivatives having serum glucose reducing activity” (Allergan, Inc., priority 2003, dated 2004).

In data set [1] the test system is female diabetic db/db mice. Briefly: serum glucose, triglyceride and thyroxine levels in db/db mice. Type of data set: in vivo. The conditions noted are these: female db/db mice, Compound 27 50 mg/kg. As for the experimental part: An assay described below tests the effect of compounds of the invention on serum glucose, tryglyceride and thyroxine levels in female 9-10 weeks old db/db mice.
Blood samples (70 μl) were taken by orbital bleeding at 11:00 AM on day 0 (pre-treatment), day 3, and day 6. On day 7, a blood sample (700 μl) was taken at 11:00 AM and the animals were sacrificed. Glucose, triglyceride and thyroxine (T4) levels were determined on a Boehringer Manheim Hatachi Clinical Chemistry Analyzer using standard protocols provided by the manufacturer and reagents that were supplied in commercially available kits (glucose and T4; Boehringer Manheim; triglycerides: Roche Diagnostics). Seven animals were treated in each group.

Another data set addresses T1, RXRγ (Homo sapiens, UniProt P48443).
T1 construct: expressed in transfected cells
T1 sequence (P48443 1-463): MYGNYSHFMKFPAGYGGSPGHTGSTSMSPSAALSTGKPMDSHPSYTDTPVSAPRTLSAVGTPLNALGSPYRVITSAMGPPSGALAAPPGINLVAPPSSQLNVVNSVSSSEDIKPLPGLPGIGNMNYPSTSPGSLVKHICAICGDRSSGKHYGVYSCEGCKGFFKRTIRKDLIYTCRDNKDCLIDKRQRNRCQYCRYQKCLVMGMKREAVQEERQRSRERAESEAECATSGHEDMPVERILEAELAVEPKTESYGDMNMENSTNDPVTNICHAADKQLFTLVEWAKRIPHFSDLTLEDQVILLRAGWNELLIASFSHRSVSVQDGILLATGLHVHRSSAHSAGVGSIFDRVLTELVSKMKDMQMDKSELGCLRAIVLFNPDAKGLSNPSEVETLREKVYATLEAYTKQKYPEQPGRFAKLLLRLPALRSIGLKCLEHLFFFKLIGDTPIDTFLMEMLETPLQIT
As to the kind of experiment: holoreceptor transactivation assay, RXRγ. Conditions: for RXR Trans. efficacy γ: efficacy as a percentage compared to the standard compound; for EC50: holoreceptor assay, read-out: RXR Trans. EC50 γ. Type of data set: cell-based. From the text:
Particularly, the transactivation data pertaining to activation of the RAR receptors were obtained in the chimeric assay, and the transactivation data pertaining to the activation of RXR receptors were obtained in the holoreceptor assay.

In data set [2] the target is T2, RARγ (Homo sapiens, UniProt P13631).
T2 sequence (P13631 1-454): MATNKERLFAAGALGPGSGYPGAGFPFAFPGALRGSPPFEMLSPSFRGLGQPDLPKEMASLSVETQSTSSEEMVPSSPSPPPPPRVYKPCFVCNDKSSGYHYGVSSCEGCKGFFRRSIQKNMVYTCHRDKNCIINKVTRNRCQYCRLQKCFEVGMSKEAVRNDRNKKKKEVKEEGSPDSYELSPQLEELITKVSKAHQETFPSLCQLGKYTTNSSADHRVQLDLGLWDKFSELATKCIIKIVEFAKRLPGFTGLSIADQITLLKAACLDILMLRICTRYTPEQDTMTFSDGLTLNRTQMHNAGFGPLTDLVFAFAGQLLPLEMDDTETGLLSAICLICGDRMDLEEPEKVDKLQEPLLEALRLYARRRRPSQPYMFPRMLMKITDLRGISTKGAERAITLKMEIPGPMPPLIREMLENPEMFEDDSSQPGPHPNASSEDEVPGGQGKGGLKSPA
As to the kind of experiment: ligand binding assay, RARγ. The conditions noted are these: read-out: RAR Bind. K1 γ.
Text: The results obtained in this assay are expressed in EC50 numbers, as they are also in the chimeric receptor transactivation assay. The results of the ligand binding assay are expressed in Ki numbers.

Data set [3] deals with T3, RARγ (Homo sapiens, UniProt P13631).
T3 sequence (P13631 185-419 limits assumed): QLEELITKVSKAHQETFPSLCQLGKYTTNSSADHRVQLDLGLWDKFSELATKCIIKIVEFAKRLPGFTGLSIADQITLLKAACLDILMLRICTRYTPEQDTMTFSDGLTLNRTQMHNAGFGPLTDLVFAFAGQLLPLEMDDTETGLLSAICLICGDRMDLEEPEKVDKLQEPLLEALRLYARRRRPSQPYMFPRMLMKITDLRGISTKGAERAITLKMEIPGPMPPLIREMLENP
Briefly: chimeric receptor transactivation assay, RARγ. Format: cell-based. The text has this: (§1) One such assay is a chimeric receptor transactivation assay which tests for agonist-like activity in the RARα RARβ and RARγ receptor subtypes, and which is based on work published by Feigner P. L. and Holm M. (1989) Focus, 112 is described in detail in U.S. Pat. No. 5,455,265. The specification of U.S. Pat. No. 5,455,265 is hereby expressly incorporated by reference.
(§2) Table 1 discloses the activity of certain exemplary compounds of the invention in the above-described receptor transactivation and binding assays. Particularly, the transactivation data pertaining to activation of the RAR receptors were obtained in the chimeric assay, and the transactivation data pertaining to the activation of RXR receptors were obtained in the holoreceptor assay.

A further data set addresses T4, RARα (Homo sapiens, UniProt P10276).
T4 sequence (P10276 183-417 limits assumed): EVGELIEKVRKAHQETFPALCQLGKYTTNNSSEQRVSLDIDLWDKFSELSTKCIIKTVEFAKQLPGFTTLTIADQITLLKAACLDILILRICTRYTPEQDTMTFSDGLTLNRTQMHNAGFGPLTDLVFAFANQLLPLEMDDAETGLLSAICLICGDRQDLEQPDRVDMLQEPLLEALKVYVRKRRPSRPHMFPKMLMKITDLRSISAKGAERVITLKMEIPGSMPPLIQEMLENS
Briefly: chimeric receptor transactivation assay, RARα. Type of data set: cell-based.
Text: as §1, §2

Where [4] appears, read: day 0 (pre-treatment), groups: standard compound 5 mg/kg.
Setting [5] is: oral gavage daily, standard compound 5 mg/kg.
[6] abbreviates: efficacy as a percentage compared to the standard compound.

Usually EC50 stands for the concentration at which the effect is half-maximal.

Consider `CCOc1cc2c(cc1\C(CC)=C(F)/C=C/C(C)=C(\F)C(=O)O)C(C)(C)CCC2(C)C` [Compound 27, (2Z,4E,6E)-7-(3-Ethoxy-5,5,8,8-tetramethyl-5,6,7,8-tetrahydro-naphthalen-2-yl)-2,6-difluoro-3-methyl-nona-2,4,6-trienoic acid], for which, in data set [1] (setting [4]), the “Glucose Day 0” value is 384 mg/dL and the “Triglycerides Day 0” value is 152 mg/dL. For the same compound, the “T4 Day 7” value in data set [1] (oral gavage daily for seven days, standard compound 5 mg/kg) is 3.9 ± 0.9 µg/dL. Besides, in data set [1] (setting [5]), the “Glucose Day 3, 3 h” value stood at 290 mg/dL; the “Glucose Day 6, 3 h” value was found to be 225 mg/dL; the “Triglycerides Day 3, 3 h” value was 106 mg/dL. Further, at RXRγ, the “RXR Trans. efficacy γ” value was found to be 23% and the EC50 was determined as 0.003 µM. Also, the Ki at RARγ [2] turned out to be 6.4 µM.
In the case of `CC/C(=C(F)/C=C/C(C)=C(\F)C(=O)O)c1cc2c(cc1OCOC)C(C)(C)CCC2(C)C` [Compound 21, (2Z,4E,6E)-2,6-Difluoro-7-(3-methoxymethoxy-5,5,8,8-tetramethyl-5,6,7,8-tetrahydro-naphthalen-2-yl)-3-methyl-nona-2,4,6-trienoic acid], at RXRγ, the “RXR Trans. efficacy γ” value stood at 36% and the EC50 is 0.008 µM. Besides, on RARγ [2], the Ki came out at 0.94 µM.
Regarding `CCCOc1cc2c(cc1\C(C)=C(F)/C=C/C(C)=C(\F)C(=O)O)C(C)(C)CCC2(C)C` [Compound 11, (2Z,4E,6E)-2,6-Difluoro-3-methyl-7-(5,5,8,8-tetramethyl-3-propoxy-5,6,7,8-tetrahydro-naphthalen-2-yl)-octa-2,4,6-trienoic acid], the EC50 on RARγ [3] (chimeric assay, read-out: RAR Trans. EC50 γ) came out at 0.18 µM; at RARα (chimeric assay, read-out: RAR Trans. EC50 α), 0.005 µM. Also, the “RAR Trans. efficacy γ” value on RARγ [3] (setting [6]) stood at 28%. The “RAR Trans. efficacy α” value at RARα (setting [6]) worked out at 12%. Besides, the Ki at RARγ [2] amounted to 0.25 µM.
